Like-named read-outs stand apart in the source and are kept apart here.
What was measured:
c-Mer = c-Mer (Homo sapiens (Human), UniProt Q12866); assay: TAM Kinase Assay (HTRF), c-Mer; type: biochemical
Method: (§1) 0.1 ul test compounds dissolved in DMSO were transferred from compound plates to white 384-well assay plates (Greiner [sequence] plates). […] The plate was protected from light and incubated at room temperature for 60 min.

phosphor-Axl = phosphor-Axl (Homo sapiens (Human), UniProt P30530); assay: TAM Kinase Assay (HTRF), phosphor-Axl; type: biochemical; details: read-out: Phospho-Axl IC50;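 also: test enzyme was recombinant Axl protein, pre-activated by autophosphorylation with ATP and MgCl2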
Method: Autophosphorylation of Axl was carried out by incubating the recombinant Axl protein (Life Technologies, PV4275) in buffer containing 50 mM Tris, pH7.5, 0.2 mg/ml Axl, 5 mM ATP, 20 mM MgCl2 and 2 mM DTT at room temperature for 1 hour.
as §1

Tyro3 = Tyro3 (Homo sapiens (Human), UniProt Q06418); assay: TAM Kinase Assay (HTRF), Tyro3; type: biochemical; details: 0.366 nM Tyro3, HTRF, 60 min room temperature; read-out: Tyro3IC50
Method: as §1

PI3Kδ = PI3Kδ (Homo sapiens (Human), UniProt O00329); details: cited from earlier work
JAK1 = JAK1 (Homo sapiens (Human), UniProt P23458); details: cited from earlier work
JAK2 = JAK2 (Homo sapiens (Human), UniProt O60674); details: selectivity ratio, IC50 at 1 mM ATP; cited from earlier work
NK cells = details: cited from earlier work
[1] = system: tumor models with different histologies; details: cited from earlier work
[2] = 0.0625 nM c-Mer, HTRF, 60 min room temperature, read-out: c-Mer IC50
[3] = 5.1 nM phosphor-Axl, HTRF, 60 min room temperature

Chain of Tyro3 (Q06418 41-890): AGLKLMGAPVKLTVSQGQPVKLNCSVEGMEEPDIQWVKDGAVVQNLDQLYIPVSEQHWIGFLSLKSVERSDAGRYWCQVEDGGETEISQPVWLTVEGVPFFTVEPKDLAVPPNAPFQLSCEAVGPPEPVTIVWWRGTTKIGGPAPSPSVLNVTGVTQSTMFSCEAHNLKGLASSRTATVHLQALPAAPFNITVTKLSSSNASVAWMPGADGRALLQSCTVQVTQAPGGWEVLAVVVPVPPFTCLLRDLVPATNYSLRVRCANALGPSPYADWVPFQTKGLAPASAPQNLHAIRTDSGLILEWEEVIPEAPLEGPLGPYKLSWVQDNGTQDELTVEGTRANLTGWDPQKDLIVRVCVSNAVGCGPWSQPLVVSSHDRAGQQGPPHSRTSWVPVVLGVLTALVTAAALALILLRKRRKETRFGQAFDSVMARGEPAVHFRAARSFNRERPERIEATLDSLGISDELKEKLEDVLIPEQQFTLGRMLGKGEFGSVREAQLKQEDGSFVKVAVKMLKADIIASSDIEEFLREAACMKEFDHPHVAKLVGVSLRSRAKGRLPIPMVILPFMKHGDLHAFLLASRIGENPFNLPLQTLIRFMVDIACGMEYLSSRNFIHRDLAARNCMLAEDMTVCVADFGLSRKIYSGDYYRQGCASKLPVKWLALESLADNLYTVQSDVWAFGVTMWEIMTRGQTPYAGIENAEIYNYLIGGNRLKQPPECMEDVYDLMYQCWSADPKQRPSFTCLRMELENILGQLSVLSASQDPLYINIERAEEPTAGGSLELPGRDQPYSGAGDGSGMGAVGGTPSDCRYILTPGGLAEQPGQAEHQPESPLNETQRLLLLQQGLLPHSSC
Chain of phosphor-Axl (P30530 26-894): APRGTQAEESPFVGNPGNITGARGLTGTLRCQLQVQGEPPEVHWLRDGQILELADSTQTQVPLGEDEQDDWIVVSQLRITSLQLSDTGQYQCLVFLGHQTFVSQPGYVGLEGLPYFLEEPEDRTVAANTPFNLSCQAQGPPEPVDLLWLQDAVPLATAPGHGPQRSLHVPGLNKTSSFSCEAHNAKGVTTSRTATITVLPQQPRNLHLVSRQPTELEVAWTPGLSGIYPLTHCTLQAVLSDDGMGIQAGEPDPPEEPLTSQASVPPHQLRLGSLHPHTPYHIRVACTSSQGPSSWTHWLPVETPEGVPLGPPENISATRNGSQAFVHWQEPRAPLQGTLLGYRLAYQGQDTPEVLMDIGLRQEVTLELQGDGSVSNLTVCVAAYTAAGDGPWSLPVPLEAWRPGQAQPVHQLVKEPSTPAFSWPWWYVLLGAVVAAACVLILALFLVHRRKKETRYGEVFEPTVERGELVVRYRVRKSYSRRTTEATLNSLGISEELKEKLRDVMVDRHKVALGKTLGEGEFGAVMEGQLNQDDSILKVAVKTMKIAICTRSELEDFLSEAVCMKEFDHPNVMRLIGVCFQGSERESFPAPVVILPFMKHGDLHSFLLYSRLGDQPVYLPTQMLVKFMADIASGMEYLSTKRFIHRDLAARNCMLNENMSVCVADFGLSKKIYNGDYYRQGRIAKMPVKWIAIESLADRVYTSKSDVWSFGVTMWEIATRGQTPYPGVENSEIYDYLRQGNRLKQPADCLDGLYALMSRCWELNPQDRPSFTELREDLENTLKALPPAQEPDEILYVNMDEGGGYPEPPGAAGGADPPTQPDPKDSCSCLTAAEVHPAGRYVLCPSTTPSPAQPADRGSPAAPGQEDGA
Chain of JAK2 (O60674 whole entry, species assumed): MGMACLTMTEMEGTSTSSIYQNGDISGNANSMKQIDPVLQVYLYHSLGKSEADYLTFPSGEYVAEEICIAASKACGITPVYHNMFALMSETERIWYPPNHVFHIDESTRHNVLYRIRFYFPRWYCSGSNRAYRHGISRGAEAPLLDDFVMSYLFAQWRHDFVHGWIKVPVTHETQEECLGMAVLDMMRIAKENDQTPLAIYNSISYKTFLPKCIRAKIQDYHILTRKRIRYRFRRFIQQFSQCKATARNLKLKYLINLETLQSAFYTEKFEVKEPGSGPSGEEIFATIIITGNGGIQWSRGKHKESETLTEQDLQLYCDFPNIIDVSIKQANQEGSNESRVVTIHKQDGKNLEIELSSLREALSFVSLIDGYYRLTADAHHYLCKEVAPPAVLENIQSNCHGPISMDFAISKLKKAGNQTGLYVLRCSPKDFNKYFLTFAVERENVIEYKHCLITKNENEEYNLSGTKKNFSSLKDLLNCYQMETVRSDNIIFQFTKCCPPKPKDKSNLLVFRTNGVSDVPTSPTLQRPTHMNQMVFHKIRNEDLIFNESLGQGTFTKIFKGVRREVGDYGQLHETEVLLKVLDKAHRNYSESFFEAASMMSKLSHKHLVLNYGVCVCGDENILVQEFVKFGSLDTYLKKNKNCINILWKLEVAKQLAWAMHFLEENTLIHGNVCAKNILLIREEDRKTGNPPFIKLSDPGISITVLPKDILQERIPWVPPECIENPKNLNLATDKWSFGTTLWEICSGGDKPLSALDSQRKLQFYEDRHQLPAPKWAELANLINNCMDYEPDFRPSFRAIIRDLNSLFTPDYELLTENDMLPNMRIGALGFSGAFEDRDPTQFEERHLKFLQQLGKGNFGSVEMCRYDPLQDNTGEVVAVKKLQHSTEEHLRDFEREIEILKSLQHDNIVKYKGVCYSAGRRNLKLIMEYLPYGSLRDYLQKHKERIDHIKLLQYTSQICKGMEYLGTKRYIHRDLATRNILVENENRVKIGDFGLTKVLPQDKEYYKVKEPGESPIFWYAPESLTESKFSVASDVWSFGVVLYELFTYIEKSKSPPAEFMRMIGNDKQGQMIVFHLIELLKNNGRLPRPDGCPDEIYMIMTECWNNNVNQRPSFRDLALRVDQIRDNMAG
Chain of PI3Kδ (O00329 whole entry, looked up, species assumed): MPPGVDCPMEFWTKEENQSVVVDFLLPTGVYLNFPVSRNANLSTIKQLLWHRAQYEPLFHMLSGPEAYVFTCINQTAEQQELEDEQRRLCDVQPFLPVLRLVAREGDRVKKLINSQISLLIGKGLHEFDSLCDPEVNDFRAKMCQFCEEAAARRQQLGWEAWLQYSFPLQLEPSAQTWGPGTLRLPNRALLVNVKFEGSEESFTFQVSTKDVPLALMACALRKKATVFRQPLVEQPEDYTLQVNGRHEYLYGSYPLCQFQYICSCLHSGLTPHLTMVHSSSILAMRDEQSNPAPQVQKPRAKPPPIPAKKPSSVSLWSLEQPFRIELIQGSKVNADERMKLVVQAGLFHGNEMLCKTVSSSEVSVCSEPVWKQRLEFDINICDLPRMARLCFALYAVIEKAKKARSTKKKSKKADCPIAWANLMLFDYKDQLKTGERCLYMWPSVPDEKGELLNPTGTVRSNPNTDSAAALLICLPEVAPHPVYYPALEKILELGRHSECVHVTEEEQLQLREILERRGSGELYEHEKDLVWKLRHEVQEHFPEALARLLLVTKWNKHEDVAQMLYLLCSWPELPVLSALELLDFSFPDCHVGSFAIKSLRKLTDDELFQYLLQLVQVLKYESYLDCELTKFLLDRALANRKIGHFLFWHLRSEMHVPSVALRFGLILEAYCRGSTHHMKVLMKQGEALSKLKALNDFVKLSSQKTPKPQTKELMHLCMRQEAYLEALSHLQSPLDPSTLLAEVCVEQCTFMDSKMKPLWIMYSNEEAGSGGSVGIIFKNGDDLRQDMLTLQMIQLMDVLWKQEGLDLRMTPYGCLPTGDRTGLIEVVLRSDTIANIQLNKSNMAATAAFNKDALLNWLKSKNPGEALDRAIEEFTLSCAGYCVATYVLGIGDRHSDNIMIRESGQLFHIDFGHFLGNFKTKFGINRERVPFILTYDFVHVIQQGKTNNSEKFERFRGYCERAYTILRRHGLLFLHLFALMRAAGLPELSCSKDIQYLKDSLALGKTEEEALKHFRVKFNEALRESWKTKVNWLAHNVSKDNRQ
Chain of PI3Kδ (P27986 whole entry partner, looked up, species assumed): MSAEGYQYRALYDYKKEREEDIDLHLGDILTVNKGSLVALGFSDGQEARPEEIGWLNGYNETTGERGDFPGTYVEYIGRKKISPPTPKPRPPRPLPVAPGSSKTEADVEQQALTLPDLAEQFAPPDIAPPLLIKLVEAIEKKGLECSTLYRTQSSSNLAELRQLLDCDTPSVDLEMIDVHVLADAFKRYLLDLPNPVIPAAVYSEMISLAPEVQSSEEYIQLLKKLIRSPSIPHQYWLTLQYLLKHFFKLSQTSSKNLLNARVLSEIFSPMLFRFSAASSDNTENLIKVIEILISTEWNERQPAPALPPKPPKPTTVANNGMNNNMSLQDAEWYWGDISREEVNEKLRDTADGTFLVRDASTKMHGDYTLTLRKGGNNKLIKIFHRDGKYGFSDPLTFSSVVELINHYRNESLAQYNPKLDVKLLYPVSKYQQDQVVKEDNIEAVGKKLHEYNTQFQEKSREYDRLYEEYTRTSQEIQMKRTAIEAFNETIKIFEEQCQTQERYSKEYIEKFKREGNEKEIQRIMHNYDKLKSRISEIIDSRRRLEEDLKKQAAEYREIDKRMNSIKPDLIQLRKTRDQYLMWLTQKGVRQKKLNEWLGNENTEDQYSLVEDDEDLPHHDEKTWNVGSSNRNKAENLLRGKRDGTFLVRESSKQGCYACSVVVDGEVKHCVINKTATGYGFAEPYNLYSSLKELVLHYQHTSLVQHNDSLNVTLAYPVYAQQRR

Row | IC50 (c-Mer; [2]) [nM] | IC50 (phosphor-Axl; [3]) [nM] | IC50 (Tyro3) [µM] | SMILES | other results
1 | – | – | > 3 | O=C(NCC1(c2cccc(-c3ncnc4[nH]ccc34)c2)Cc2ccccc2C1)c1ccco1 [Example 34, N-({2-[3-(7H-Pyrrolo[2,3-d]pyrimidin-4-yl)phenyl]-2,3-dihydro-1H-inden-2-yl}methyl)-2-furamide] | IC50 (PI3Kδ): 50 to 100 nM
2 | > 3000 | > 3000 | > 3 | FC(F)C1(c2cccc(-c3ncnc4[nH]ccc34)c2)Cc2ccccc2C1 [Example 20, 4-{3-[2-(Difluoromethyl)-2,3-dihydro-1H-inden-2-yl]phenyl}-7H-pyrrolo[2,3-d]pyrimidine] | –
3 | – | < 500 | > 3 | O=C(NCC1(c2cccc(-c3ncnc4[nH]ccc34)c2)Cc2ccccc2C1)C1CCCC1 [Example 27, N-({2-[3-(7H-Pyrrolo[2,3-d]pyrimidin-4-yl)phenyl]-2,3-dihydro-1H-inden-2-yl}methyl)cyclopentanecarboxamide] | –
4 | > 3000 | 1000 to 3000 | > 3 | COCC1(c2cccc(-c3ncnc4[nH]ccc34)c2)Cc2ccccc2C1 [Example 25, 4-{3-[2-(Methoxymethyl)-2,3-dihydro-1H-inden-2-yl]phenyl}-7H-pyrrolo[2,3-d]pyrimidine] | –
5 | < 500 | < 500 | > 3 | CNCC1(c2cccc(-c3ncnc4[nH]ccc34)c2)Cc2ccccc2C1 [Example 24, N-Methyl-1-{2-[3-(7H-pyrrolo[2,3-d]pyrimidin-4-yl)phenyl]-2,3-dihydro-1H-inden-2-yl}methanamine] | –
6 | < 500 | < 500 | > 3 | CN(C)CC1(c2cccc(-c3ncnc4[nH]ccc34)c2)Cc2ccccc2C1 [Example 23, N,N-Dimethyl-1-{2-[3-(7H-pyrrolo[2,3-d]pyrimidin-4-yl)phenyl]-2,3-dihydro-1H-inden-2-yl}methanamine] | –
7 | < 500 | < 500 | > 3 | CC(C)C(=O)NCC1(c2cccc(-c3ncnc4[nH]ccc34)c2)Cc2ccccc2C1 [Example 17, 2-Methyl-N-({2-[3-(7H-pyrrolo[2,3-d]pyrimidin-4-yl)phenyl]-2,3-dihydro-1H-inden-2-yl}methyl)propanamide] | –
8 | < 500 | < 500 | > 3 | COC(=O)NCC1(c2cccc(-c3ncnc4[nH]ccc34)c2)Cc2ccccc2C1 [Example 22, Methyl ({2-[3-(7H-pyrrolo[2,3-d]pyrimidin-4-yl)phenyl]-2,3-dihydro-1H-inden-2-yl}methyl)carbamate] | –
9 | 1000 to 3000 | 500 to 1000 | > 3 | CS(=O)(=O)NCC1(c2cccc(-c3ncnc4[nH]ccc34)c2)Cc2ccccc2C1 [Example 21, N-({2-[3-(7H-Pyrrolo[2,3-d]pyrimidin-4-yl)phenyl]-2,3-dihydro-1H-inden-2-yl}methyl)methanesulfonamide] | –
10 | < 500 | < 500 | > 3 | O=C(NCC1(c2cccc(-c3ncnc4[nH]ccc34)c2)Cc2ccccc2C1)C1CC1 [Example 18, N-({2-[3-(7H-Pyrrolo[2,3-d]pyrimidin-4-yl)phenyl]-2,3-dihydro-1H-inden-2-yl}methyl)cyclopropanecarboxamide] | –
11 | < 500 | < 500 | > 3 | CC(=O)NCC1(c2cccc(-c3ncnc4[nH]ccc34)c2)Cc2ccccc2C1 [Example 16, N-({2-[3-(7H-Pyrrolo[2,3-d]pyrimidin-4-yl)phenyl]-2,3-dihydro-1H-inden-2-yl}methyl)acetamide] | –
12 | > 3000 | > 3000 | > 3 | FCC1(c2cccc(-c3ncnc4[nH]ccc34)c2)Cc2ccccc2C1 [Example 19, 4-{3-[2-(Fluoromethyl)-2,3-dihydro-1H-inden-2-yl]phenyl}-7H-pyrrolo[2,3-d]pyrimidine] | –
13 | > 3000 | > 3000 | > 3 | O=C(NCC1(c2cccc(-c3ncnc4[nH]ccc34)c2)Cc2ccccc2C1)c1ccno1 [Example 31, N-({2-[3-(7H-Pyrrolo[2,3-d]pyrimidin-4-yl)phenyl]-2,3-dihydro-1H-inden-2-yl}methyl)isoxazole-5-carboxamide] | –
14 | > 3000 | 1000 to 3000 | > 3 | O=C(NCC1(c2cccc(-c3ncnc4[nH]ccc34)c2)Cc2ccccc2C1)c1cccs1 [Example 28] | –

Continued, molecule first:

Row | SMILES | IC50 (c-Mer; [2]) [nM] | IC50 (phosphor-Axl; [3]) [nM] | IC50 (Tyro3) [µM] | other results
15 | NCC1(c2cccc(-c3ncnc4[nH]ccc34)n2)Cc2ccccc2C1 [Example 2, 1-{2-[6-(7H-Pyrrolo[2,3-d]pyrimidin-4-yl)pyridin-2-yl]-2,3-dihydro-1H-inden-2-yl}methanamine] | 1000 to 3000 | 1000 to 3000 | > 3 | –
16 | NCC1(c2cc(-c3ncnc4[nH]ccc34)cc(Cl)n2)Cc2ccccc2C1 [Example 7, 1-{2-[6-Chloro-4-(7H-pyrrolo[2,3-d]pyrimidin-4-yl)pyridin-2-yl]-2,3-dihydro-1H-inden-2-yl}methanamine] | < 500 | < 500 | > 3 | –
17 | NCC1(c2cccc(-c3ncnc4[nH]ccc34)c2)Cc2cccnc2C1 (stereo not drawn) [Example 6, 1-{6-[3-(7H-Pyrrolo[2,3-d]pyrimidin-4-yl)phenyl]-6,7-dihydro-5H-cyclopenta[b]pyridin-6-yl}methanamine] | < 500 | < 500 | > 3 | –
18 | OCC1(c2cccc(-c3ncnc4[nH]ccc34)c2)Cc2ccccc2C1 [Example 12, {2-[3-(7H-Pyrrolo[2,3-d]pyrimidin-4-yl)phenyl]-2,3-dihydro-1H-inden-2-yl}methanol] | < 500 | < 500 | > 3 | –
19 | NCC1(c2ccnc(-c3ncnc4[nH]ccc34)c2)Cc2ccccc2C1 [Example 4, 1-{2-[2-(7H-Pyrrolo[2,3-d]pyrimidin-4-yl)pyridin-4-yl]-2,3-dihydro-1H-inden-2-yl}methanamine] | 500 to 1000 | 500 to 1000 | > 3 | –
20 | CC(=O)NCC1(c2cccc(-c3ncnc4[nH]ccc34)c2)Cc2ccncc2C1 (stereo not drawn) [Example 10, N-({6-[3-(7H-Pyrrolo[2,3-d]pyrimidin-4-yl)phenyl]-6,7-dihydro-5H-cyclopenta[c]pyridin-6-yl}methyl)acetamide] | – | 1000 to 3000 | > 3 | –
21 | O=C(NCC1(c2cccc(-c3ncnc4[nH]ccc34)c2)Cc2ccccc2C1)C1CCC1 [Example 26, N-({2-[3-(7H-Pyrrolo[2,3-d]pyrimidin-4-yl)phenyl]-2,3-dihydro-1H-inden-2-yl}methyl)cyclobutanecarboxamide] | – | < 500 | > 3 | IC50 (JAK1): < 10 nM; JAK2/JAK1 (JAK2): >10
22 | NCC1(c2cccc(-c3ncnc4[nH]ccc34)c2)Cc2ccccc2C1 [Example 11, 1-{2-[3-(7H-Pyrrolo[2,3-d]pyrimidin-4-yl)phenyl]-2,3-dihydro-1H-inden-2-yl}methanamine] | < 500 | < 500 | 1 to 3 | –
23 | CCOc1cn(-c2ccc(F)cc2C)nc1C(=O)Nc1ccc(Oc2ccnc3cc(OC)c(OC)cc23)c(F)c1 [LDC1267] | – | – | – | activation of NK cells (NK cells): activates NK cells; metastasis in tumor models [1]: blocks metastasis
24 | N#CCC1(n2cc(-c3ncnc4[nH]ccc34)cn2)CN(C2CCN(C(=O)c3ccnc(C(F)(F)F)n3)CC2)C1 [Compound 9, [3-[4-(7H-pyrrolo[2,3-d]pyrimidin-4-yl)-1H-pyrazol-1-yl]-1-(1-{[2-(trifluoromethyl)pyrimidin-4-yl]carbonyl}piperidin-4-yl)azetidin-3-yl]acetonitrile, reference compound] | – | – | – | JAK2/JAK1 (JAK2): >10
25 | CC(=O)NCC1(c2cc(-c3ncnc4[nH]ccc34)ccn2)Cc2ccccc2C1 [Example 8, N-({2-[4-(7H-Pyrrolo[2,3-d]pyrimidin-4-yl)pyridin-2-yl]-2,3-dihydro-1H-inden-2-yl}methyl)acetamide] | – | 1000 to 3000 | > 3 | –
26 | NCC1(c2cc(-c3ncnc4[nH]ccc34)ccn2)Cc2ccccc2C1 [Example 3, 1-{2-[4-(7H-Pyrrolo[2,3-d]pyrimidin-4-yl)pyridin-2-yl]-2,3-dihydro-1H-inden-2-yl}methanamine] | < 500 | < 500 | 1 to 3 | –
27 | NCC1(c2cccc(-c3ncnc4[nH]ccc34)c2)Cc2ccncc2C1 (stereo not drawn) [Example 5, 1-{6-[3-(7H-Pyrrolo[2,3-d]pyrimidin-4-yl)phenyl]-6,7-dihydro-5H-cyclopenta[c]pyridin-6-yl}methanamine] | < 500 | < 500 | 1 to 3 | –
28 | NCC1(c2cncc(-c3ncnc4[nH]ccc34)c2)Cc2ccccc2C1 [Example 1, 1-{2-[5-(7H-Pyrrolo[2,3-d]pyrimidin-4-yl)pyridin-3-yl]-2,3-dihydro-1H-inden-2-yl}methanamine] | < 500 | < 500 | > 3 | –
29 | Cn1cc(C(=O)NCC2(c3cccc(-c4ncnc5[nH]ccc45)c3)Cc3ccccc3C2)cn1 [Example 33, 1-Methyl-N-({2-[3-(7H-pyrrolo[2,3-d]pyrimidin-4-yl)phenyl]-2,3-dihydro-1H-inden-2-yl}methyl)-1H-pyrazole-4-carboxamide] | – | – | > 3 | IC50 (c-Mer): > 3000 nM; IC50 (phosphor-Axl): > 3000 nM

From patent publication US10519163B2, “Pyrrolopyrimidine derivatives as TAM inhibitors” (Incyte Corporation, priority 2015, dated 2019)
